Experimental data reported in PMC7687371, “Quantitative in Vitro to in Vivo Extrapolation (QIVIVE) for Predicting Reduced Anogenital Distance Produced by Anti-Androgenic Pesticides in a Rodent Model for Male Reproductive Disorders” (Environmental Health Perspectives, 2020).
Like-named read-outs stand apart in the source and are kept apart here. Marks after values point to notes of the source that are not given here.

Columns and labels:
[1] = PBK model first-order kinetic parameters fitted to in vivo ADME data; design: species or system rat; settings: PBK model parameter
[2] = Fetal chemical exposure analysis (LC-QTOF) at GD21; assay type: in vivo, rat; settings: for Measured concentration in male fetuses: Sprague-Dawley, rat, in vivo, 40 mg/kg/day
Method: Dams were decapitated under CO2 /oxygen anesthesia at GD21 and fetuses collected by cesarean section. Prior to decapitation of the fetuses, their BWs and AGDs were recorded. Blood from the dams was collected in heparinized vacutainer tubes, centrifuged at 125×g for 10 min at 4°C to prepare plasma, and, together with the amniotic fluid, frozen directly. Pooled trunk blood from all female and male fetuses of the same litter (female and male blood separately) was collected into heparin-treated capillary tubes approximately 90 min after dosing and the plasma was prepared and stored at −80°C until analysis for pesticides and selected metabolites by liquid chromatography quadrupole time-of-flight mass spectroscopy (LC-QTOF). Details about the LC-QTOF analyses are provided in “Method S1” in Supplemental Material. Amniotic fluid was collected from fetuses by pipetting, pooled within each litter, snap frozen in liquid nitrogen, and subsequently stored at −80 °C .
Method S1. Chemical analysis of pesticide levels
Acetonitrile, methanol, formic acid and 25% ammonium hydroxide, all of LC-MS grade and ethyl acetate were obtained from Sigma Aldrich, Schneldorf, Germany. Isolute bulk C-18 sorbent was obtained from Biotage, Sweden and was washed with acetonitrile and ethyl acetate and dried prior to use. Water was purified on a Milli Q system, Millipore Corporation, US.
Pesticide standards were purchased from Dr. Ehrenstorfer (Augsburg, Germany), LGC-standards (Teddington, Middlesex, UK) and Sigma Aldrich (St. Louis, MO, USA). Acetonitrile used as solvents for the LC-QTOF was LiChrosolv Hypergrade. An ESI-L low concentration tuning mix from Agilent (Santa Clara, CA, USA) was used for tuning of the TOF. A reference solution was prepared containing Purine and HP0921 from Agilent (Santa Clara, CA, USA).
Stock solutions of the pesticides were prepared at 1 mg/ml in acetonitrile, methanol or toluene.
Standard mixtures containing the test compounds were prepared at a concentration of 10 µg/ml acetonitrile and used for preparation of calibration solutions. Isomers eluting very close to each other were avoided in these mixtures. […]
added 200 µl of ice-cold acetonitrile in Eppendorf tubes. Internal standard was added in the form of 10 µl TPP (5 µg/ml) and the extraction was performed by whirl mixing. The tube was then stored on ice for 5 min and then centrifuged at 10,000 x g for 10 min at 4 °C (Ole Dich Instrument, Denmark). An aliquot of the supernatant was transferred to filter vials (0.45 µm) and analysed by […]
Quality control samples were included in each analytical run. These were prepared using the same procedure as for the samples, though using amniotic fluid from untreated control Wistar rats extracted with acetonitrile containing three different levels of the relevant pesticide standards. The resulting spike levels were 0.04, 0.013 and 0.13 µg/ml. […]
fluid or plasma from Sprague Dawley rats was transferred to an Eppendorf vial and added 150 µl of acetonitrile. 50 mg of isolute C-18 sorbent was added to the tube, which was shaken for 5 min, […]
cooled to 4 °C and centrifuged at 10,000 x g for 10 min at 4 °C (Ole Dich Instrument makers, Denmark). 20 µl of the supernatant was transferred to an HPLC vial and mixed with 80 µl of 5%- 75% acetonitrile (this percentage was analyte dependent) prior to analysis by LC-MS.LC -QTOF […]
Pesticide screening was carried out using a liquid chromatography-electrospray ionization-quadrupole-time of flight-mass spectrometer.
The LC system was connected to a Bruker Daltonics, maXis qTOF mass spectrometer equipped with an electrospray ion source operated in positive ion mode (Bruker Daltonics, Bremen, Germany). The ion source settings were: nebulizer pressure 2 bars, drying gas flow 8 l/min, dry gas temperature 200 °C, capillary voltage 2500 V. The scan range was from 80 to 700 m/z with an acquisition rate of 2 Hz. Sodium formate dissolved in 50% 2-propanol was introduced in the ion […]

androgen receptor (AR) = biological target: androgen receptor (AR); design: method as in Vinggaard et al. (2008); settings: ref Vinggaard et al. (2008); read-out: AR antagonism (IC50); cited from earlier work
[3] = design: method as in U.S. EPA 2012; settings: EPI Suite, experimental preferred over modeled; ref U.S. EPA 2012; cited from earlier work
[4] = design: method as in Sierra-Santoyo et al. (2008); settings: conversion of parent compound into active metabolite; ref Sierra-Santoyo et al. (2008); cited from earlier work
NCI-H295R cells = assay: H295R steroidogenesis assay; assay type: cell-based, human; settings: for Effect on androgen (steroid) synthesis, in words: H295R steroidogenesis assay
Method: To capture effects on steroid hormone synthesis (testosterone and androstendione), we tested all 12 pesticides in the H295R assay with the human adrenocortical carcinoma cell line NCI-H295R (American Type Culture Collection no. CRL-2,128, LGC Standards), as previously described ([Hecker et al. 2011]; [Rosenmai et al. 2013]). In brief, cells were cultured in DMEM/F-12 +glutamine medium with HEPES buffer (Invitrogen) containing 1% insulin-transferrin-sodium selenite plus Premix (VWR) and 2.5% Nu-Serum (BD Bioscience) at 37°C in a 5% CO2 atmosphere. The day before exposure, cells were seeded 300,000 per well in clear 24-well plates (VWR Corning). Cells were exposed for 48 h to control (Forskolin: 1μM , 10μM (Sigma-Aldrich); and Prochloraz: 0.3μM , 3μM (VWR-Bie and Berntsen) or test compounds. The vehicle (DMSO) concentration was kept constant in all wells (0.1%). After 48 h, the exposure culture medium was removed and stored at –80°C until the levels of 10 steroid hormones (testosterone, androstenedione, aldosterone, corticosterone, cortisol, dehydroepiandrosterone, 17α-hydroxyprogesterone , progesterone, estrone, and 17β-estradiol ) were quantified using the high-performance liquid chromatography–tandem mass spectrometry method described elsewhere ([Mortensen and Pedersen 2007]). Minor modifications were made to accommodate a smaller sample size and to include more hormones. The liquid chromatography system (Agilent 1100) was equipped with an Atlantis C18 column ( 2.1×150mm , 3μm ) (Waters Corp.) maintained at 40°C. The sample injection volume was 50μL . […] The mass spectrometer was a Quattro Ultima triple quadrupole instrument (Waters Corp.). […] Each pesticide was tested in 2-fold serial dilutions at concentrations between 0.8 and 50μM in three independent experiments, and hormone levels were normalized to the solvent controls containing 0.1% DMSO. Cell viability was evaluated by using the 3-(4,5-dimethylthiazol-2-yl)-2,5- diphenyltetrazolium bromide (MTT) assay (Sigma) as previously described ([Hecker et al. 2011]; [Rosenmai et al. 2013]). Fluorescence was measured (excitation 560 nm , emission 590 nm ) using a Wallac Victor2 1420 multilabel counter (PerkinElmer).

Wistar rats [5] = settings: male, rat, in vivo, 40 mg/kg/day
Method: In total, four in vivo exposure studies were conducted with pesticide exposures to pregnant rats during gestation and lactation to the selected compound (Table 2). […] For one selected dose of each compound, the internal body concentrations in dams and fetuses were determined by cesarean section at GD21. Due to the study outcomes from the third study, we conducted a fourth follow-up study on dimethomorph (Study 4).
Pup weights and AGD were measured after birth at PD1 using a stereomicroscope with a micrometer eyepiece and were determined as the distance between the genital papilla and the anus. To discriminate between an anti-androgenic effect and stunted growth, the AGD index (AGDI) was calculated by dividing AGD by the cube root of the BW (as described by [Hass et al. 2007]). The estimation of AGDI effect doses by regression modeling required a standardized AGDI scale. Therefore, we normalized the AGDI values in relation to the dynamic range spanned by the mean AGDI of the male and the female controls as (38) normalized AGDI=mean(AGDI of male controls)−AGDI(exposed animal)/mean(AGDI of male controls)−mean(AGDI of female controls).

[6] = ref Wetmore et al. (2012); cited from earlier work
Wistar rats [7] = settings: rat, in vivo, cited from earlier work
[8] = design: method as in EFSA 2009; settings: 24 h after dosing; ref EFSA 2009; cited from earlier work
pregnant dams and pups = settings: ref EFSA's Draft Assessment Reports (DARs); cited from earlier work

## C=CC(C)(O)C(=O)Nc1cc(Cl)cc(Cl)c1 (centres unmarked) [M2, 3′,5′-dichloro-2-hydroxy-2-methylbut-3-enanilide]
[1]
  Urine excretion rate from kidney (L/h) KUrine: 0.2 L/h
[2]
  Measured concentration in male fetuses: 3.4 µM
Androgen receptor (AR)
  IC50: 200 nM
[3]
  log Kow: 2.95
[4]
  Metabolism rate in liver, Metabolite (L/h): 0.9^h L/h

## C=CC1(C)OC(=O)N(c2cc(Cl)cc(Cl)c2)C1=O (centres unmarked) [Vinclozolin, vinclozolin]
NCI-H295R cells
  Effect on androgen (steroid) synthesis, in words: negligible activity in terms of suppressing steroid synthesis
[1]
  Portal GI absorption rate into liver (L/h) KAS: 0.5 L/h
  Urine excretion rate from kidney (L/h) KUrine: 0.05 L/h
[1]; metabolic clearance
  Metabolism rate in liver, Total (L/h) KMetab: 1.4 L/h
[2]; fetal plasma GD21, mean litter value, dams dosed 40 mg/kg BW per day parent compound (Study 1)
  Measured concentration in male fetuses (μM): <0.15 ^e μM
Wistar rats [5]
  AGDI reduction (%): 26^d %
[3]
  log Kow: 3.10
[6]
  Unbound plasma fraction (%): 59^g %
Wistar rats [7]; 5 mg/kg
  AGDI (normalised to male and female controls) mean: 0.96
Wistar rats [7]; 10 mg/kg
  AGDI (normalised to male and female controls) mean: 0.80
Wistar rats [7]; 20 mg/kg
  AGDI (normalised to male and female controls) mean: 0.83
Wistar rats [7]; 24.5 mg/kg
  AGDI (normalised to male and female controls) mean: 0.93
Wistar rats [7]; 40 mg/kg
  AGDI (normalised to male and female controls) mean: 0.72
Wistar rats [7]; 80 mg/kg
  AGDI (normalised to male and female controls) mean: 0.46
Wistar rats [7]; 95.9 mg/kg
  AGDI (normalised to male and female controls) mean: 0.42
Wistar rats [7]; 160 mg/kg
  AGDI (normalised to male and female controls) mean: 0.25
Wistar rats [7]
  AGDI ED10: 9.2 mg/kg BW
  AGDI ED50: 78.7 mg/kg BW

## C=CC(C)(OC(=O)Nc1cc(Cl)cc(Cl)c1)C(=O)O (centres unmarked) [M1, 2-[[(3,5-dichlorophenyl)-carbamoyl]oxy]-2-methyl-3-butenoic acid]
[1]
  Urine excretion rate from kidney (L/h) KUrine: 0.2 L/h
[2]
  Measured concentration in male fetuses: 18.0 µM
Androgen receptor (AR)
  IC50: 2000 nM
[3]
  log Kow: 3.52
[4]
  Metabolism rate in liver, Metabolite (L/h): 2.8^h L/h

## C=CCOC(Cn1ccnc1)c1ccc(Cl)cc1Cl (centres unmarked) [Imazalil, imazalil]
NCI-H295R cells
  Effect on androgen (steroid) synthesis, in words: inhibited testosterone synthesis
NCI-H295R cells; Homo sapiens, NCI-H295R, read-out: Testosterone inhibition (IC20 µM)
  IC20: 500 nM
NCI-H295R cells; multiple contrast tests
  Androstendione, LOEC: 0.8 µM
  Corticosterone, LOEC: 0.8 µM
  Cortisol, LOEC: 0.8 µM
  DHEA, LOEC: 0.8 µM
  Estradiol, LOEC: 0.8 µM
  OH-Progesterone, LOEC: 0.8 µM
  Progesterone, LOEC: 0.8 µM
  Testosterone, lowest observed effect concentration (LOEC): 0.8 µM
[1]
  Fecal excretion rate from gut (L/h) KFeces: 0.5 L/h
  Portal GI absorption rate into liver (L/h) KAS: 1 L/h
  Urine excretion rate from kidney (L/h) KUrine: 0.53 L/h
[3]
  log Kow: 3.82
[8]
  Number of metabolites discovered in urine and feces: at least 25
[6]
  Unbound plasma fraction (%): 4.8^g %
Pregnant dams and pups
  Critical toxicity: Increased duration of gestation , effects on pups/fetuses related to maternal toxicity
  LOAEL (mg/kg bw): 80 mg/kg bw
  NOAEL (mg/kg bw): 20 mg/kg bw
